Reference: patent US20030228583A1, “Biomarkers of liver response” (priority 2001, published 2003)

How the values were obtained:
[1] = tested on: Liver Response-Associated Features (LRFs) in serum/plasma (blood); assay: Proteome analysis (2D electrophoresis, Reference Protocol) of depleted serum/plasma of drug-treated vs control animals: relative abundance of LRFs
Description: Samples from animals treated with various drugs at various timepoints and various dose levels can be collected, prepared, and analysed as described herein. […] Using the following procedure, proteins in liver tissue and serum/plasma from 5 control animals and 5 animals having liver response induced through drug treatment were separated by isoelectric focusing followed by SDS-PAGE and analyzed. Samples were taken and analyzed at three different time points designated “early”, “full manifestation” and “late”. Parts 6.1.1 to 6.1.9 (inclusive) of the procedure set forth below are hereby designated as the “Reference Protocol”.
Approximately 200 μl venous blood was collected at the time of necropsy in serum seperation tubes and serum obtained by centrifugation for 3 minutes at 11,000 rpm using a Biofuge A centrifuge. 100 μl of the resulting serum was added to 15 μl protease inhibitor, vortexed and frozen at −80° C.
A protein assay (Pierce (Rockford, Ill.) BCA Cat #23225) was performed on each serum/plasma sample as received. Prior to protein separation, each sample was processed for selective depletion of certain proteins, in order to enhance and simplify protein separation and facilitate analysis by removing proteins that may interfere with or limit analysis of proteins of interest. See International Patent Application No. PCT/GB99/01742, filed Jun. 1, 1999, which is incorporated by reference in its entirety, with particular reference to pages 3 and 6.
This was done by circulating the following solutions sequentially through the columns: (1) Dulbecco's Phosphate Buffered Saline (Gibco BRL Cat. No. 14190-094); (2) concentrated antibody solution; (3) 200 mM sodium carbonate buffer, pH 8.35; (4) cross-linking solution (200 mM sodium carbonate buffer, pH 8.35, 20 mM dimethylpimelimidate); and (5) 500 mM ethanolamine, 500 mM NaCl. A third (un-derivatised) protein G Hi-Trap column was then attached to the lower end of the tandem column assembly.
The chromatographic procedure was automated using an Akta Fast Protein Liquid Chromatography (FPLC) System such that a series of up to seven runs could be performed sequentially. […] Fractions (typically 3 ml per tube) were collected of unbound material (“Flowthrough fractions”) that eluted through the column during column loading and washing stages and of bound proteins (“Bound/Eluted fractions”) that were eluted by step elution with Immunopure Gentle Ag/Ab Elution Buffer (Pierce Cat. No. 21013). The eluate containing unbound material was collected in fractions which were pooled, desalted/concentrated by centrifugal ultrafiltration and stored to await further analysis by 2D PAGE.
A volume of depleted serum/plasma containing approximately 300 μg of total protein was aliquoted and an equal volume of 10% (w/v) SDS (Fluka 71729), 2.3% (w/v) dithiothreitol (BDH 443852A) was added. The sample was heated at 95° C. for 5 mins, and then allowed to cool to 20° C . 125 μl of the following buffer was then added to the sample:
This mixture was vortexed, and centrifuged at 13000 rpm for 5 mins at 15° C., and the supernatant was analyzed by isoelectric focusing.
Isoelectric focusing (IEF), was performed using the Immobiline® DryStrip Kit (Pharmacia BioTech), following the procedure described in the manufacturer's instructions, see Instructions for Immobilineg DryStrip Kit, Pharmacia, #18-1038-63, Edition AB (incorporated herein by reference in its entirety). Immobilized pH Gradient (IPG) strips (18 cm, pH 3-10 non-linear strips; Pharmacia Cat. #17-1235-01) were rehydrated overnight at 20° C. in a solution of 8M urea, 2% (w/v) CHAPS, 10 mM DTT, 2% (v/v) Resolytes 3.5-10, as described in the Immobiline DryStrip Users Manual. For IEF, 50 μl of supernatant (prepared as above) was loaded onto a strip, with the cup-loading units being placed at the basic end of the strip.

[2] = tested on: Male Sprague-Dawley rats; assay: Phenobarbital rat toxicity study (clinical observations, body weight, clinical laboratory measurements, organ weights, histopathology)
[3] = final necropsy (twelve days post dose)

CCC1(c2ccccc2)C(=O)NC(=O)NC1=O [phenobarbital]
Fold Change LRF-235 ([1]; Early, P 0.0075): 8.26 fold | Fold Change LRF-223 ([1]; Early, P 0.0117): 1.34 fold | Fold Change LRF-158 ([1]; Early, P 0.0119): −1.33 fold | Fold Change LRF-217 ([1]; Early, P 0.0122): 2.16 fold | Fold Change LRF-182 ([1]; Early, P 0.0178): −2.81 fold | Fold Change LRF-179 ([1]; Early, P 0.0212): −1.37 fold | Fold Change LRF-224 ([1]; Early, P 0.0216): 1.30 fold | Fold Change LRF-369 ([1]; Late, P 0.0097): 2.53 fold | Fold Change LRF-371 ([1]; Late, P 0.0109): 3.02 fold | Fold Change LRF-257 ([1]; Middle, P 0.0122): −1.42 fold | Fold Change LRF-259 ([1]; Middle, P 0.0212): −1.34 fold | Fold Change LRF-294 ([1]; Middle, P 0.0216): 1.57 fold | Clinical observations ([2]; 100 mg/kg/day oral gavage, rat): generally well tolerated with no adverse clinical signs observed in any of the control or treated groups other than decreased activity | Survival ([2]; 100 mg/kg/day oral gavage, rat): survived | Gross pathology observations ([2]; 100 mg/kg/day oral, rat): no treatment-related gross findings | Creatinine decreased ([2]; day 2, 100 mg/kg/day oral, rat): 1.7 × | Serum/plasma urea nitrogen decreased ([2]; day 2, 100 mg/kg/day oral, rat): 1.8 × | Total protein decreased ([2]; day 2, 100 mg/kg/day oral, rat): 1.1 × | Cholesterol increased ([2]; day 5, 100 mg/kg/day oral, rat): 1.5 × | Glucose decreased ([2]; day 5, 100 mg/kg/day oral, rat): 1.6 × | Serum/plasma urea nitrogen increased ([2]; day 12, 100 mg/kg/day oral, rat): 1.2 × | % reticulocytes ([2]; days 5 and 12): small but significant decreases | Group mean body weights vs concurrent controls ([2]; either interim necropsy): No significant treatment-related changes | Mean body weight vs concurrent controls ([2]; final necropsy): significant decrease | Absolute liver weights [2, 3]: about the same as control | Relative liver weight increased [2, 3]: about 1.06 × control mean | Liver weights increased ([2]; five days post dose): about 1.5 × control mean | Increased numbers of hepatocytes with apoptotic bodies or mitotic figures, incidence ([2]; same time point as centrilobular hypertrophy): 3 of 5 | Liver weights increased ([2]; two days post dose): about 1.1 × control mean | Centrilobular hypertrophy, incidence ([2]; two days post dose (so in the source)): 5 of 5 | Group means of the various hematology parameters (except % reticulocytes) ([2]; vs vehicle control animals): not altered
